Several values for one entry are separate records, joined by “and”; a condition that tells them apart may be missing. Equal values may be shown once. Read-outs that look alike come from different tables or passages of the source.
Target: factor Xa (Homo sapiens, UniProt P00742)
Conditions: for difference in reflectance units for the minimum and maximum concentration: 0 ng/mL vs. 1500 ng/mL, native urine; for intensity, mean, Laura Smart No. 1 / intensity, mean, Laura Smart No. 2 / intensity, mean, Laura Smart No. 3 / intensity, mean, all readers / intensity, single, Laura Smart No. 1 / intensity, single, Laura Smart No. 2 / intensity, single, Laura Smart No. 3: 380 nm
Description: Using a modified reflectance photometer, hereinafter also referred to as reader (Laura Smart (LS), ERBA Lachema), native urine samples were investigated using excitation light having either a wavelength of 380 nm or a wavelength of 470 nm. Herein, the samples under investigation contained the direct factor Xa inhibitor rivaroxaban or the direct thrombin inhibitor dabigatran. For each anticoagulant, samples with different concentrations were provided.
Test strips were used on which both the blood clotting factor (factor Xa or thrombin) and the respective chromogenic substrate conjugated to a detectable substance were immobilized, i.e. N-benzoyl-L-isoleucyl-L-glutamyl-L-glycyl-L-arginine-para-nitroaniline (SEQ ID NO:1) together with factor Xa, and N-(para-tosyl)-glycyl-L-prolyl-L-arginine-para-nitroanilide acetate together with thrombin. After dipping the test strip into the urine sample to be investigated for 2 to 3 seconds, incubation was allowed for 10 min. Then, the test strip was inserted into the reader. In total, three different readers (“Laura No. 1”, “Laura No. 2”, and “Laura No. 3”) were used in order to check for any device-specific issues.
In order to suppress fluorescence light which might originate from the released detestable substance (para-nitroaniline), a UV band-pass filter was used made of UG11 glass (Schott AG).
For each single measurement, an intensity value was put out by the respective reader, given in reflectance units (% REM). Each of the readers was able to split up the measured intensity into 1000 increments.
Generally, the higher the concentration of the anticoagulant in the sample, the less detectable substance is released from the chromogenic substrate by the corresponding blood dotting factor. Accordingly, in case of a high concentration of the anticoagulant, the absorption by the sample is low while the reflectance by the sample is high. In order to reliably evaluate the presence or absence of the anticoagulant in the sample, as a general rule, a low concentration of the anticoagulant in the sample should result in a % REM value as low as possible, while a high concentration of the anticoagulant in the sample should result in a % REM value as high as possible. In other words, the difference in reflectance units for the minimum and maximum concentration of the anticoagulant should be as large as possible.

[1] = rivaroxaban 100 ng/mL in native urine
[2] = rivaroxaban 200 ng/mL in native urine
[3] = rivaroxaban 400 ng/mL in native urine
[4] = rivaroxaban 1500 ng/mL in native urine

Sequence of factor Xa (P00742 235-488 limits assumed): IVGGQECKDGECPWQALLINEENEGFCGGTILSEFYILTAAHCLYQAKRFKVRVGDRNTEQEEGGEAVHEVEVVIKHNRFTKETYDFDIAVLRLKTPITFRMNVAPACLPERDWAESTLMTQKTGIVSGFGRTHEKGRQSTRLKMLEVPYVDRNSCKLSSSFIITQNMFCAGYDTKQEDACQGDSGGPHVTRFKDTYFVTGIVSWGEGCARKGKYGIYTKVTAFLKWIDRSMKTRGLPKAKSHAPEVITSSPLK
Sequence of factor Xa (P00742 41-179 partner limits assumed): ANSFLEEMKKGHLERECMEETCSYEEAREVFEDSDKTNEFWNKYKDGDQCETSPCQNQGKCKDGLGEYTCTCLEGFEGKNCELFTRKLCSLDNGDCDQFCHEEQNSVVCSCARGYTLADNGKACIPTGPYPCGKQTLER

Compound: O=C(NC[C@H]1CN(c2ccc(N3CCOCC3=O)cc2)C(=O)O1)c1ccc(Cl)s1 [rivaroxaban]
- difference in reflectance units for the minimum and maximum concentration (excitation light 380 nm): about 400 % REM
- difference in reflectance units for the minimum and maximum concentration (excitation light 470 nm): about 200 % REM
- change of the measured intensity with concentration (dark urine samples, excitation light 380 nm): possible to observe a change of the measured intensity with the concentration
- intensity, mean, Laura Smart No. 1 [1]: 181 % REM
- intensity, mean, Laura Smart No. 2 [1]: 194 % REM
- intensity, mean, Laura Smart No. 3 [1]: 199 % REM
- intensity, mean, all readers [1]: 191 % REM
- intensity, single, Laura Smart No. 1 [1]: 192 % REM and 159 % REM and 193 % REM
- intensity, single, Laura Smart No. 2 [1]: 194 % REM and 191 % REM and 196 % REM
- intensity, single, Laura Smart No. 3 [1]: 202 % REM and 196 % REM and 199 % REM
- intensity, mean, Laura Smart No. 1 [2]: 276 % REM
- intensity, mean, Laura Smart No. 2 [2]: 266 % REM
- intensity, mean, Laura Smart No. 3 [2]: 315 % REM
- intensity, mean, all readers [2]: 286 % REM
- intensity, single, Laura Smart No. 1 [2]: 254 % REM and 336 % REM and 238 % REM
- intensity, single, Laura Smart No. 2 [2]: 279 % REM and 265 % REM and 253 % REM
- intensity, single, Laura Smart No. 3 [2]: 304 % REM and 342 % REM and 299 % REM
- intensity, mean, Laura Smart No. 1 [3]: 387 % REM
- intensity, mean, Laura Smart No. 2 [3]: 425 % REM
- intensity, mean, Laura Smart No. 3 [3]: 387 % REM
- intensity, mean, all readers [3]: 400 % REM
- intensity, single, Laura Smart No. 1 [3]: 346 % REM and 406 % REM and 409 % REM
- intensity, single, Laura Smart No. 2 [3]: 431 % REM and 413 % REM
- intensity, single, Laura Smart No. 3 [3]: 423 % REM and 411 % REM and 326 % REM
- intensity, mean, Laura Smart No. 1 [4]: 542 % REM
- intensity, mean, Laura Smart No. 2 [4]: 518 % REM
- intensity, mean, Laura Smart No. 3 [4]: 496 % REM
- intensity, mean, all readers [4]: 519 % REM
- intensity, single, Laura Smart No. 1 [4]: 537 % REM and 528 % REM and 560 % REM
- intensity, single, Laura Smart No. 2 [4]: 588 % REM and 468 % REM and 499 % REM
- intensity, single, Laura Smart No. 3 [4]: 501 % REM and 510 % REM and 476 % REM

— US20210317505A1, “IMPROVED DETECTION OF ANTICOAGULANTS IN BODY FLUIDS” (DOASENSE GmbH, priority 2017, published 2021)
